Activity calls are given as the source filed them. The calls are words filed in the database; no cut-off is given here.
Legend:
[1] = Toxicity in po dosed cynomolgus monkey assessed phospholipidosis administered via gavage up to 39 weeks; type: organism-based, Macaca fascicularis; settings: in vivo, 6552 h
[2] = tested on: Mus musculus; assay: In-vivo stabilization of SMN2 mRNA in SMA neonatal delta7 mouse model assessed as increase in SMN protein levels in brain at 1 mg/kg, ip dosed once daily starting from postnatal day 3 to postnatal day 9 relative to control; type: functional
[3] = tested on: Mus musculus; assay: In-vivo stabilization of SMN2 mRNA in SMA adult C/C allele mouse model assessed as increase in SMN protein levels in quadriceps at 3 mg/kg, po dosed once daily for 10 days relative to control; type: functional
[4] = tested on: Mus musculus; assay: In-vivo stabilization SMN2 mRNA in SMA delta7 mouse assessed as increase in mean survival day at 0.1 mg/kg, ip dosed daily starting from postnatal day 3 to postnatal day 23 followed by po dosing 0.3 mg/kg per day via gavage (reference value: 10.5 days); type: functional
[5] = tested on: Mus musculus; assay: In-vivo stabilization SMN2 mRNA in SMA delta7 ip dosed mouse assessed as increased muscle size in the EDL dosed daily starting from postnatal day 3 to postnatal day 14 by immunohistochemistry; type: functional, organism-based
[6] = Stabilization of human […] mRNA splicing expressed in human SMA-derived fibroblasts at 121 to 605 nM by RT-qPCR analysis; type: ADME; settings: 0.605 µM
[7] = Effect on FOXM1b/c mRNA splicing in cynomolgus monkey induced pluripotent stem cells by RT-qPCR analysis; type: ADME, Macaca fascicularis; settings: Macaca fascicularis
[8] = Effect on human FOXM1a mRNA splicing expressed in human SMA-derived fibroblasts by RT-qPCR analysis; type: ADME
[9] = tested on: Mus musculus; assay: In-vivo stabilization of SMN2 mRNA in SMA neonatal delta7 mouse model assessed as increase in SMN protein levels in brain at 0.1 mg/kg, ip dosed once daily starting from postnatal day 3 to postnatal day 9 relative to control; type: functional
[10] = organism: Homo sapiens; assay: Modulation of human SMN2 mRNAsplicing expressed in HEK293H cells by qRT-PCR analysis; type: cell-based
[11] = Oral bioavailability in rat at 5.5 mg/kg administered as single dose; type: ADME, organism-based; settings: in vivo
[12] = Chronic toxicity in retina of po dosed cynomolgus monkey assessed as multifocal peripheral retina degeneration after 39 weeks by OCT analysis; type: organism-based, Macaca fascicularis; settings: in vivo, 6552 h
[13] = tested on: Mus musculus; assay: In-vivo stabilization SMN2 mRNA in SMA delta7 ip dosed mouse assessed as increase in number of motor neurons dosed daily starting from postnatal day 3 to postnatal day 14 by immunohistochemistry; type: functional, organism-based
[14] = tested on: Mus musculus; assay: In-vivo stabilization of SMN2 mRNA in SMA adult C/C allele mouse model assessed as increase in SMN protein levels in quadriceps at 1 mg/kg, po dosed once daily for 10 days relative to control; type: functional
[15] = tested on: Mus musculus; assay: In-vivo stabilization SMN2 mRNA in SMA delta7 mouse assessed as increase in mean survival day at 0.1 to 3 mg/kg, ip dosed daily starting from postnatal day 3 to postnatal day 23 followed by po dosing 0.3 to 10 mg/kg per day via gavage; type: functional, organism-based

Cc1cn2nc(-c3cc(=O)n4cc(N5CCNC6(CC6)C5)ccc4n3)cc(C)c2n1
Activity [1]: Non-Toxic
Activity [2]: 206%
Activity [3]: 0%
MSD [4]: 26 days
Activity [5]: Dose-dependent effect
Activity [6]: Non-Toxic
IC50 [7]: 155 nM
EC50 [8]: 67 nM
Activity [9]: 28%
EC1.5 [10]: 4 nM
bioavailability [11]: 100%
Activity [12]: Toxic
Activity [13]: Dose-dependent effect
Activity [14]: 0%
Activity [15]: Active

From ChEMBL document CHEMBL4382198, “Discovery of Risdiplam, a Selective Survival of Motor Neuron-2 ( SMN2) Gene Splicing Modifier for the Treatment of Spinal Muscular Atrophy (SMA)” (J Med Chem, 2018)
